As usually defined, the logP is the decadic logarithm of the partition coefficient of the neutral form, usually between octanol and water. A higher logP goes with a more lipophilic compound.

Data set [1] can be described thus: The observed [pt] (mmol/mg protein) value for platinum content in cells. It counts as ADME.
Data set [2] in a line: Octanol-water partition coefficient (logP) value for platinum compounds. It counts as physicochemical.

Turning to “AMMONIO(DICHLORO)[DI(METHYLCARBONYLOXY)]PLATINUM(CYCLOHEXYL)AMMONIUM”, the “Observed [pt]” value in data set [1] was 3.5 mM (mg of protein)-1. Further, the logP in data set [2] is -0.47.

In the case of “AMMONIO(DICHLORO)[DI(PROYLCARBONYLOXY)]PLATINUM(CYCLOHEXYL)AMMONIUM”, in data set [1], the “Observed [pt]” value was 13.5 mM (mg of protein)-1. The logP in data set [2] amounted to 0.47.

On to CISPLATIN, for which the “Observed [pt]” value in data set [1] was 1 mM (mg of protein)-1. This substance showed a logP in data set [2] of -2.36.

With “AMMONIO(DICHLORO)[DI(BUTYLCARBONYLOXY)]PLATINUM(CYCLOHEXYL)AMMONIUM”, in data set [1], the “Observed [pt]” value is 17 mM (mg of protein)-1. The substance also came in with a log partition coefficient (logP) in data set [2] of 0.86.

Take “AMMONIO(DICHLORO)PLATINUM(CYCLOHEXYL)AMMONIUM”: the “Observed [pt]” value in data set [1] is listed as 1.9 mM (mg of protein)-1. In data set [2], this substance registered a log partition coefficient (logP) of -0.87.
